Data from ChEMBL document CHEMBL3885861, “Open TG-GATES”.

Species: Rattus norvegicus
Assay: Open TG-GATES - Regimen: Single
Format: toxicity, organism-based, Sprague-Dawley
Parameters: regimen Single, gender Male, age 6 weeks
Conditions: in vivo, po, 0 mg/kg, route gavage, dose level Control; for APTT / Bas / Eos / Fbg / Hb / Ht / Lym / MCH / MCHC / MCV / Mono / Neu / PT / Plat / RBC / Ret / WBC: tissue Blood; for KIDNEY_L / KIDNEY_R / KIDNEY_TOTAL: tissue Kidney; for LIVER: tissue Liver; for A/G / ALP / ALT / AST / BUN / CRE / Ca / Cl / DBIL / GLC / IP / K / LDH / Na / PL / RALB / TBIL / TC / TG / TP / gamma-GTP: tissue Plasma

`Clc1c(Cl)c(Cl)c(Cl)c(Cl)c1Cl` [PERCHLOROBENZENE] was tested, and the TERMINAL_BW (9 h) was 215.4 g, the APTT (9 h) was 21.3 s and the Bas (9 h) was 0.2%. The Eos (9 h) was 1%, the Fbg (9 h) was 226.6 mg/dL and the Hb (9 h) was 13.5 g/dL. For the same compound, the Ht (9 h) was 38.6%, the Lym (9 h) was 75% and the MCH (9 h) was 21.1 pg. For the same compound, the MCHC (9 h) was 35%, the MCV (9 h) was 60.2 fL and the Mono (9 h) was 2.6%. It also gave a Neu (9 h) of 19.8%, a PT (9 h) of 12.3 s and a Plat (9 h) of 128.3 x10_4/uL. The RBC (9 h) was 641.8 x10_4/ul, the Ret (9 h) was 7% and the WBC (9 h) was 90.9 x10_2/uL. The KIDNEY_L (9 h) was 1 g, the KIDNEY_R (9 h) was 0.9 g and the KIDNEY_TOTAL (9 h) was 1.9 g. The LIVER (9 h) was 8.7 g, the A/G (9 h) was 1.6 and the ALP (9 h) was 849.2 IU/L. For the same compound, the ALT (9 h) was 28.4 IU/L, the AST (9 h) was 62.4 IU/L and the BUN (9 h) was 9.4 mg/dL. The CRE (9 h) was 0.3 mg/dL, the Ca (9 h) was 10.7 mg/dL and the Cl (9 h) was 103.6 meq/L. It also gave a DBIL (9 h) of 0.068 mg/dL, a GLC (9 h) of 198.8 mg/dL and an IP (9 h) of 10.6 mg/dL. The K (9 h) was 3.8 meq/L, the LDH (9 h) was 175.8 IU/L and the Na (9 h) was 142 meq/L. It also gave a PL (9 h) of 129.4 mg/dL, an RALB (9 h) of 3.3 g/dL and a TBIL (9 h) of 0.1 mg/dL. For the same compound, the TC (9 h) was 67.6 mg/dL, the TG (9 h) was 46.6 mg/dL and the TP (9 h) was 5.5 g/dL. For the same compound, the gamma-GTP (9 h) was 1 IU/L, the TERMINAL_BW (24 h) was 227.7 g and the APTT (24 h) was 18.7 s. For the same compound, the Bas (24 h) was 0.6%, the Eos (24 h) was 0.8% and the Fbg (24 h) was 216.6 mg/dL. The Hb (24 h) was 13.7 g/dL, the Ht (24 h) was 39.5% and the Lym (24 h) was 80.8%. It also gave an MCH (24 h) of 21.1 pg, an MCHC (24 h) of 34.8% and an MCV (24 h) of 60.6 fL. The Mono (24 h) was 2.2%, the Neu (24 h) was 14.8% and the PT (24 h) was 11.9 s. The Plat (24 h) was 129.9 x10_4/uL, the RBC (24 h) was 651.8 x10_4/ul and the Ret (24 h) was 6.2%. It also gave a WBC (24 h) of 90.7 x10_2/uL, a KIDNEY_L (24 h) of 1.1 g and a KIDNEY_R (24 h) of 1.1 g. For the same compound, the KIDNEY_TOTAL (24 h) was 2.1 g, the LIVER (24 h) was 10.3 g and the A/G (24 h) was 1.6. It also gave an ALP (24 h) of 981.2 IU/L, an ALT (24 h) of 31.2 IU/L and an AST (24 h) of 70.6 IU/L. It also gave a BUN (24 h) of 13.6 mg/dL, a CRE (24 h) of 0.4 mg/dL and a Ca (24 h) of 10.9 mg/dL. It also gave a Cl (24 h) of 103 meq/L, a DBIL (24 h) of 0.06 mg/dL and a GLC (24 h) of 192.6 mg/dL. It also gave an IP (24 h) of 7.5 mg/dL, a K (24 h) of 4 meq/L and an LDH (24 h) of 203.2 IU/L. For the same compound, the Na (24 h) was 141.2 meq/L, the PL (24 h) was 131.4 mg/dL and the RALB (24 h) was 3.4 g/dL. The TBIL (24 h) was 0.1 mg/dL, the TC (24 h) was 70.2 mg/dL and the TG (24 h) was 68.2 mg/dL. It also gave a TP (24 h) of 5.5 g/dL and a gamma-GTP (24 h) of 1.2 IU/L.
